Results on eleven molecules are retold here after patent US7770577B2, “Methods and devices for treating lung dysfunction” (priority 2001, dated 2010).

Assay [1] relates to CF airway epithelial cell cultures. The assay is described as follows: SCN− efflux in CF airway epithelial air-liquid interface cultures. Format: cell-based, human. Conditions: for effect on SCN^− efflux: CF cells. The method, then:
(§1) J. Respir. […] Experiments comparing non-CF and CF cells were performed with cultures grown simultaneously and matched in passage number, the number of cells plated, and days in culture. […] To initiate experiments, apical surfaces of the cultures were rapidly washed three times with Dulbecco's PBS (50 μl for 6.5 mm filters or 500 μl for 24 mm filters) containing 100 μM amiloride. Following a third wash, additional aliquots were placed on the apical surface for sequential 2 min incubations at 37° C. in humidified 5% CO2.
(§2) Bronchial epithelial cells were obtained from either CF or non-CF lungs at the time of transplant or organ donation. Cells were passaged twice (thereby de-differentiated) and then cultured at an air-liquid interface for re-differentiation. […] J. Respir. […] Following three rapid PBS washes of the apical surface, additional PBS aliquots were placed on the apical surface for sequential 2 min incubations. […] Airway epithelial cell cultures from three separate CF patients were compared to three non-CF control cultures.

In assay [2] the test system is human airway epithelia. The assay is described as follows: Apical H2O2 production by airway epithelial ALI cultures (fluorometric horseradish peroxidase micro-assay). Type of assay: cell-based. As for the experimental part:
Reverse transcription-polymerase chain reaction (RT-PCR) was performed with primers designed to detect any mammalian NADPH oxidase capable of producing H2O2 through superoxide intermediate.
Since the predicted molecular structure of Duox1 and 2 identified an intracellular loop containing 2 EF-hand calcium-binding motifs, the Ca^2+ stimulated H2O2 production was assessed. ALI cultures were stimulated for one hour with Thapsigargin (1 μM), an inhibitor of the endoplasmic reticulum calcium ATPase pump that increases intracellular Ca^2+. […] In this assay, the cells were incubated for one hour with either DPI alone or in combination with thapsigargin (1 μM).

For assay [3], the system named is Pseudomonas aeruginosa (ATCC 27853). Put plainly: LPO-dependent antibacterial activity of human airway secretions. Format: cell-based. The method, then:
Human airway secretions were obtained from intubated patients undergoing ambulatory outpatient elective surgery according to IRB approved protocols. Patients were selected for not having respiratory disease. Saline (3 ml) was injected into the tracheal tube and immediately suctioned into a trap. Recovered secretions were spun at 16,000 rpm for 20 min. at 4° C. The supernatant was aliquoted and stored at −80° C. for later analysis. Undiluted secretions were obtained from acutely (<24 h) intubated patients in the medical ICU who were intubated for reasons other than respiratory disease. Selected patients had no clinical signs of respiratory infection. Secretions were cleared by centrifugation (100,000×g, 30 min), aliquoted, and stored at −80° C.
(§3) Bacteria were collected in the stationary phase of growth and further diluted in LB broth to 5-6×10^4/ml. After adding glycerol to 15%, aliquots of bacteria were stored at −80° C.
(§4) Cultures of non-CF and CF airway epithelial cells were matched with regard to passage number, days in culture, and days at the air liquid interface. At least 24 h prior to the experiments, basolateral media of some cultures were supplemented with 100 μM KSCN. The apical surfaces of the cultures were washed with 0.25 ml PBS and the washes were pooled and stored at −20° C. […] Control experiments were performed using only PBS adjusted to pH 5.7. […] Mixtures were sampled immediately and 4 h after incubation at room temperature and CFU were determined by plating on LB Agar. Antibacterial activity was expressed as a ratio of CFU after 4 h to the starting CFU in the sample to control for slight differences in the starting number of bacteria.
It is unlikely that H2O2 would continue to be produced in secretions after collection since its source is thought to be cellular in origin. For this reason, secretions were supplemented with 10^−5 M H2O2.

The subject of assay [4] is P. aeruginosa. The method, then:
as §3, §4

Assay [5] has as its system Pseudomonas aeruginosa (ATCC 27853). The assay is described as follows: Antibacterial assay of LPO system components in PBS pH 5.7 (control experiments). Format: cell-based. Conditions: 1.125 μg/ml LPO, 10^−5 M H2O2 or 5×10^−4 M SCN− added singly or in pairs. The method, then: as §3, §4
Assay [6] deals with Burkholderia cepacia. The assay is described as follows: LPO dependent killing with bovine milk LPO at pH 5.7, 6.2 and 6.8. Format: cell-based. Particulars: dapsone 10^−3 M; salicyl hydroxamic acid 10^−4 M.
From the text: (§5) Concentrations of the LPO system components were selected to be within the measured ranges in human airways.
The test system of assay [7] is P. aeruginosa. The assay is described as above. Format: cell-based, Pseudomonas aeruginosa. Conditions: dapsone 10^−3 M; salicyl hydroxamic acid 10^−4 M.
From the text: as §5
The test system of assay [8] is non-CF airway epithelial cell cultures. The assay is described as follows: SCN− efflux / apical accumulation in non-CF airway epithelial air-liquid interface cultures. Format: cell-based, human. As for the experimental part:
as §1, §2

For assay [9] the following is noted: cited from earlier work.
Where [10] appears, read: PBS pH 5.7, 4 h room temperature, H2O2 10^−5 M or dapsone 10^−3 M, mean±SE, n=6.
Where [11] appears, read: long-term daily aerosol administration.

Where two headings read alike, the source gives them in different places.

Take `O=S(=O)(O)c1cc(N=C=S)ccc1C=Cc1ccc(N=C=S)cc1S(=O)(=O)O` [DIDS, 4,4′-diisothiocyanostilbene-2,2′disulphonic acid]: the “effect on SCN^− efflux” value in assay [1] is “neither glibenclamide nor DIDS had any effect”.
As to `c1ccc2c(c1)[I+]c1ccccc1-2` [DPI, Diphenyleneiodonium], the “apical H2O2 production” value in assay [2] (1 μM DPI in combination with thapsigargin (1 μM), one hour) is listed as 45±19 H2O2 pmoles/hr.
Turning to `OO` [H2O2, hydrogen peroxide], the “cell growth (ratio of CFU after 4 h to starting CFU)” value amounted to 1.9±0.3 in assay [3] (setting [10]) and 0.98±0.16 in assay [3] (bacteria in airway secretions of six patients in presence of 10^−5 M H2O2, n=6). In addition, the “antibacterial activity in culture washes” value in [4] (H2O2 10^−5 M alone or with LPO, washes from cells cultured without basolateral SCN−) is listed as “did not alone or with LPO, give rise to any antibacterial activity”. In assay [5], the growth of bacteria entry is “not affected”.
`N#CS` [SCN^−, thiocyanate]: the “antibacterial activity in culture washes” value in assay [4] (LPO/H2O2 supplemented washes from CF cultures grown with basolateral SCN− (100 μM)) is “no detectable LPO-dependent effect”; in assay [4] (LPO/H2O2 supplemented washes from non-CF cultures grown with basolateral SCN− (100 μM)), “LPO-dependent killing of bacteria”; in assay [4] (exogenous SCN− (0.5 mM) added to CF culture washes), “generated antibacterial activity”; in assay [4] (exogenous SCN− (0.5 mM) added to non-CF culture washes), “increased the LPO dependent activity”. For the same molecule, the growth of bacteria result in assay [5] is reported as “not affected”.
On to `Nc1ccc(S(=O)(=O)c2ccc(N)cc2)cc1` [dapsone], for which the “cell growth (ratio of CFU after 4 h to starting CFU)” value in assay [3] (setting [10]) is 1.9±0.3; in [3] (airway secretions with 10^−5 M H2O2 plus dapsone, n=6, p<0.05 vs no dapsone) it was 1.68±0.31. Besides, the “effect of peroxidase inhibitor on LPO system antibacterial activity” value in assay [6] and in assay [7] was “inhibited” throughout.
With `CCCC(=O)Nc1ncnc2c1ncn2[C@@H]1O[C@@H]2COP(=O)(O)O[C@H]2[C@H]1OC(=O)CCC` [dibutryl cAMP], the “SCN^− efflux after stimulation of PKA” value is on record as “did not” in assay [1] (CF cultures, dibutryl cAMP (0.5 mM) and forskolin (10 μM) together); “increase in efflux” in assay [8] (non-CF cultures, dibutryl cAMP (0.5 mM) and forskolin (10 μM) together).
On to `COc1ccc(Cl)cc1C(=O)NCCc1ccc(S(=O)(=O)NC(=O)NC2CCCCC2)cc1` [glibenclamide], for which the “effect on SCN^− efflux” value in assay [1] is on record as “neither glibenclamide nor DIDS had any effect”. In addition, the “reversibility of inhibition of SCN^− efflux” value in assay [8] (non-CF cells) was “reversible”. Moreover, the “block of PKA-stimulated and baseline SCN^− efflux” value in assay [8] (non-CF cells, glibenclamide 500 μM) was “blocked”.
Regarding `CC(C)Cc1ccc(C(C)C(=O)O)cc1` (stereo not drawn) [ibuprofen], the “rate of lung inflammation” value in [9] (children with CF, four-year study, high doses) is listed as “reduced the rate of lung inflammation”.
As for `C/C=C(/C)C(=O)O[C@H]1C(C)=C2[C@H]([C@@H]1OC(=O)CCCCCCC)[C@@](C)(OC(C)=O)C[C@H](OC(=O)CCC)[C@@]1(O)[C@H]2OC(=O)[C@@]1(C)O` [thapsigargin, Thapsigargin], the “apical H2O2 produced” value in assay [2] (ALI cultures stimulated one hour with thapsigargin 1 μM (baseline 59±16)) came to 128±17 H2O2 pmoles/hr.
As to lactoperoxidase [LPO], in assay [5], the growth of bacteria result is listed as “not affected”.

B1: Pulmozyme®: mucus-thinning drug, a DNAse (recombinant human deoxyribonuclease) (protein, UniProt P24855 23-282, looked up)
Deoxyribonuclease-1: LKIAAFNIQTFGETKMSNATLVSYIVQILSRYDIALVQEVRDSHLTAVGKLLDNLNQDAPDTYHYVVSEPLGRNSYKERYLFVYRPDQVSAVDSYYYDDGCEPCGNDTFNREPAIVRFFSRFTEVREFAIVPLHAAPGDAVAEIDALYDVYLDVQEKWGLEDVMLMGDFNAGCSYVRPSQWSSIRLWTSPTFQWLIPDSADTTATPTHCAYDRIVVAGMLLRGAVVPDSALPFNFQAAYGLSDQLAQAISDHYPVEVMLK
On to B1, for which the lung function result in assay [9] (clinical trials, people with CF) is “improved lung function”. The “number of respiratory infections” value in assay [9] (clinical trials) is given as “reduced the number of respiratory infections”. Besides, in [9] (setting [11]), the “frequency of severe respiratory tract exacerbations” value is given as “decrease the frequency of severe respiratory tract exacerbations” and the “rate of decline in pulmonary function” value is reported as “slow the rate of decline in pulmonary function”.
